Data published in BindingDB's records for doi:10.1111/cbdd.12811 (Università di Bari Aldo Moro, 2016).

How the values were obtained:
[1] = target: ATP-dependent translocase ABCB1 (Homo sapiens, UniProt P08183); test: Calcein-AM Assay
Method: (§1) MDCK-MDR1 or MDCK-MRP1 cells (50,000 cells per well) were seeded into black CulturePlate (96-well plate) with 100 μL medium and allowed to become confluentovernight. Hundred microliters of test compounds was solubilized in culture medium and added to monolayers. 96/wells plate was incubated at 37 °C for 30 min. Calcein-AM was added in 100 μL of phosphate-buffered saline (PBS) to yield a final concentration of 2.5 μm, and plate was incubated for 30 min. Each well was washed three times with ice-cold PBS.

[2] = target: Multidrug resistance-associated protein 1 (Homo sapiens, UniProt P33527); test: Calcein-AM Assay
Sequence of Multidrug resistance-associated protein 1 (P33527 whole entry): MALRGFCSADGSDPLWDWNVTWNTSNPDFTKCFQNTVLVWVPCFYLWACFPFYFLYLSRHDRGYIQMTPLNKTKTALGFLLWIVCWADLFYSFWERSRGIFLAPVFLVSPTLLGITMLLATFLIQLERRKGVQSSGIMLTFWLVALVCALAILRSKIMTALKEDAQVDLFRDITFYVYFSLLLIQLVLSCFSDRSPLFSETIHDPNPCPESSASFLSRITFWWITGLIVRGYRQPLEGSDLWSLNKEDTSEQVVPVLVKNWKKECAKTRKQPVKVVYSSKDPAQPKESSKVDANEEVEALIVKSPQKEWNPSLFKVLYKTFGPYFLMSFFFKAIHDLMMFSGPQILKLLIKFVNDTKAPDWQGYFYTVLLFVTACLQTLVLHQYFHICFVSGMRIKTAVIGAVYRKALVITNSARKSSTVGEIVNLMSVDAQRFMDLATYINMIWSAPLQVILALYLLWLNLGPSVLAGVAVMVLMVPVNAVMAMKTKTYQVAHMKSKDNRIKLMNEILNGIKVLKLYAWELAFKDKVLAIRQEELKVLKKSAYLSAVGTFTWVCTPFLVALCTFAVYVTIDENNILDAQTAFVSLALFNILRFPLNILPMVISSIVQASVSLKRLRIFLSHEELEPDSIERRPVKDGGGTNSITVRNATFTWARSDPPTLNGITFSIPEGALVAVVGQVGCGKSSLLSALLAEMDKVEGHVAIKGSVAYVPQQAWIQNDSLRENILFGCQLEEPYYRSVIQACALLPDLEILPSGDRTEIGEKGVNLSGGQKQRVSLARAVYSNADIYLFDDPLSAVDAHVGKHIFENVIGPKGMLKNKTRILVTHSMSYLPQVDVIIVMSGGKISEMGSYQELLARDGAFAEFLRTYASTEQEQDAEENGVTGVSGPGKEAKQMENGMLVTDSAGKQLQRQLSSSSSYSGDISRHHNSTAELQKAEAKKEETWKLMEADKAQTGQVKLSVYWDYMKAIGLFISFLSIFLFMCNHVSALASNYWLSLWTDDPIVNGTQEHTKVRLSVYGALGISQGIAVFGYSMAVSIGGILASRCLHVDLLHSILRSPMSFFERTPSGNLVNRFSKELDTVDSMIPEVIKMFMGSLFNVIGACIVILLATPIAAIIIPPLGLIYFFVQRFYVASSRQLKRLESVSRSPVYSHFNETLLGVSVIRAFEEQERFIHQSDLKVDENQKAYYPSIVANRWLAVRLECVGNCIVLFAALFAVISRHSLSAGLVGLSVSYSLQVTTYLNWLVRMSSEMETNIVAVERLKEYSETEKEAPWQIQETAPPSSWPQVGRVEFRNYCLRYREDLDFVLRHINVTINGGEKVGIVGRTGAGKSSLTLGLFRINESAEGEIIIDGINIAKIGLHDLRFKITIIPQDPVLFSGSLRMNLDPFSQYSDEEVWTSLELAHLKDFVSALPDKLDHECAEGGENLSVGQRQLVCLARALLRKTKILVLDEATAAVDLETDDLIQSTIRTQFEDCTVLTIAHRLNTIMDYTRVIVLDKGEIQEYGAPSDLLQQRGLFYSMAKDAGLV
Method: as §1

Sequence of ATP-dependent translocase ABCB1 (P08183 whole entry): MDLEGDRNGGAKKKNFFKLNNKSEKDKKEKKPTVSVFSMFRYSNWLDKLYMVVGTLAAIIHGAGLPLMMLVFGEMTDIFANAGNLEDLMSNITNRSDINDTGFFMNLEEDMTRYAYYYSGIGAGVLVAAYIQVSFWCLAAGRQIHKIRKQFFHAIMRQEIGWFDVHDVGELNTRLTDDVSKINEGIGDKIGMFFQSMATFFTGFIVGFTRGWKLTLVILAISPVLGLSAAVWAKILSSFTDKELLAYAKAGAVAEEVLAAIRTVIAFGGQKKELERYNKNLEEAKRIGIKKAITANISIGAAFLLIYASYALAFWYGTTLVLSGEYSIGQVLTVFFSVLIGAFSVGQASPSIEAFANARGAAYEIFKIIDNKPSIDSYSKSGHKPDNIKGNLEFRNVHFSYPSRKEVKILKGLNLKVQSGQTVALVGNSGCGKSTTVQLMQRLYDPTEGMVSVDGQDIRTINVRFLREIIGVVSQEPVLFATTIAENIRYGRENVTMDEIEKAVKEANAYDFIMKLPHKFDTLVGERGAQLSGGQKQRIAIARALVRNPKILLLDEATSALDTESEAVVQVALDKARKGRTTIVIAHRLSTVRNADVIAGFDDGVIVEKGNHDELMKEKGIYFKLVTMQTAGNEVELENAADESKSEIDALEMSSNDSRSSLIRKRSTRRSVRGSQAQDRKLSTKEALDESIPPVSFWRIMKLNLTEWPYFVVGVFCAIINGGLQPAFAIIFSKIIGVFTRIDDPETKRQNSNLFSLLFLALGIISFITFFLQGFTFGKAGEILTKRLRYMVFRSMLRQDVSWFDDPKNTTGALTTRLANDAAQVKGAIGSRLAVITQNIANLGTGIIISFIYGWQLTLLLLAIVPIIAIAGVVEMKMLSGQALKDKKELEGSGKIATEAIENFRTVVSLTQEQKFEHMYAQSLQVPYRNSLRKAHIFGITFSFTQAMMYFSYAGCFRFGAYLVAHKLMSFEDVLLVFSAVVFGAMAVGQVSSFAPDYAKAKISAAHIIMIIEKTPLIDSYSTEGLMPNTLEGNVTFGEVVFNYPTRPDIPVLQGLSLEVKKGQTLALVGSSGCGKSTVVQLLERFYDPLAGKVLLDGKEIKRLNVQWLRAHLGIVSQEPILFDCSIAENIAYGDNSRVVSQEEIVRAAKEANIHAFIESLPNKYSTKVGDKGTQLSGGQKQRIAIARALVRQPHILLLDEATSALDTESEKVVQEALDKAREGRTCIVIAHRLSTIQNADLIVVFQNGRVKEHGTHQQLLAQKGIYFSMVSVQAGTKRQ

Row | IC50 [1] [µM] | IC50 [2] [µM] | SMILES
1 | 19.4 | > 100 | COc1ccc(C(=O)Nc2ccc(Br)cc2)c(OC)c1OC [N-(4-Bromo-phenyl)-2,3,4-trimethoxy-benzamide (11)]
2 | 70.7 | > 100 | COc1cc(C(=O)Nc2ccccc2)cc(OC)c1OC [3,4,5-trimethoxy-N-phenylbenzamide (5)]
3 | 9.27 | > 100 | COc1cc(OC)c(C(=O)Nc2ccc(Br)cc2)cc1OC [N-(4-Bromo-phenyl)-2,4,5-trimethoxy-benzamide (10)]
4 | > 100 | > 100 | COc1cc(OC)c(C(=O)Nc2ccccc2)c(OC)c1 [2,4,6-Trimethoxy-N-phenyl-benzamide (8)]
5 | 3.52 | > 100 | COc1ccccc1NC(=O)c1cc(OC)c(OC)cc1OC [2,4,5-Trimethoxy-N-(2-methoxy-phenyl)-benzamide (14)]
6 | 27 | – | COc1cc(C(=O)Nc2ccc(Br)cc2)cc(OC)c1OC
7 | > 100 | > 100 | COc1ccc(C(=O)Nc2ccccc2)c(OC)c1OC [2,3,4-Trimethoxy-N-phenyl-benzamide (7)]
8 | 30.4 | 71 | COc1ccccc1NC(=O)c1ccc(OC)c(OC)c1OC [2,3,4-Trimethoxy-N-(2-methoxy-phenyl)-benzamide (15)]
9 | 76.2 | > 100 | COc1cc(OC)c(C(=O)Nc2ccc(Br)cc2)c(OC)c1 [N-(4-Bromo-phenyl)-2,4,6-trimethoxy-benzamide (12)]
10 | 26.2 | > 100 | COc1ccccc1NC(=O)c1cc(OC)c(OC)c(OC)c1 [3,4,5-Trimethoxy-N-(2-methoxy-phenyl)-benzamide (13)]
11 | 47.6 | > 100 | COc1cc(OC)c(C(=O)Nc2ccccc2OC)c(OC)c1 [2,4,6-Trimethoxy-N-(2-methoxy-phenyl)-benzamide (16)]
12 | 21.9 | > 100 | COc1cc(OC)c(C(=O)Nc2ccccc2)cc1OC [2,4,5-Trimethoxy-N-phenyl-benzamide (6)]
